The values that follow come from patent publication US7939546B2, “Quinoline derivatives for modulating DNA methylation” (SuperGen, Inc., priority 2007, dated 2011).

Data set [1] deals with DNMT1 (Homo sapiens, UniProt P26358). Put plainly: Selective depletion of DNMT1 by Western blot in treated HCT116 cells. It is filed as cell-based. On the set-up: Protein extracts (equivalent to 100 μg) were isolated from HCT116 cells; endogenous in cells; host or cells: HCT116. To be noted: for % DNMT1 protein level remaining at 5 µM: HCT-116, 5 μM; for % DNMT1 protein level remaining at 10 µM: HCT-116, 10 μM. The source says: Biol. 2005, 11, 4727-41.]. For DNMT1, commercially available antibodies from Santa Cruz or New England Biolabs were used.
DNMT1, sequence (P26358 whole entry): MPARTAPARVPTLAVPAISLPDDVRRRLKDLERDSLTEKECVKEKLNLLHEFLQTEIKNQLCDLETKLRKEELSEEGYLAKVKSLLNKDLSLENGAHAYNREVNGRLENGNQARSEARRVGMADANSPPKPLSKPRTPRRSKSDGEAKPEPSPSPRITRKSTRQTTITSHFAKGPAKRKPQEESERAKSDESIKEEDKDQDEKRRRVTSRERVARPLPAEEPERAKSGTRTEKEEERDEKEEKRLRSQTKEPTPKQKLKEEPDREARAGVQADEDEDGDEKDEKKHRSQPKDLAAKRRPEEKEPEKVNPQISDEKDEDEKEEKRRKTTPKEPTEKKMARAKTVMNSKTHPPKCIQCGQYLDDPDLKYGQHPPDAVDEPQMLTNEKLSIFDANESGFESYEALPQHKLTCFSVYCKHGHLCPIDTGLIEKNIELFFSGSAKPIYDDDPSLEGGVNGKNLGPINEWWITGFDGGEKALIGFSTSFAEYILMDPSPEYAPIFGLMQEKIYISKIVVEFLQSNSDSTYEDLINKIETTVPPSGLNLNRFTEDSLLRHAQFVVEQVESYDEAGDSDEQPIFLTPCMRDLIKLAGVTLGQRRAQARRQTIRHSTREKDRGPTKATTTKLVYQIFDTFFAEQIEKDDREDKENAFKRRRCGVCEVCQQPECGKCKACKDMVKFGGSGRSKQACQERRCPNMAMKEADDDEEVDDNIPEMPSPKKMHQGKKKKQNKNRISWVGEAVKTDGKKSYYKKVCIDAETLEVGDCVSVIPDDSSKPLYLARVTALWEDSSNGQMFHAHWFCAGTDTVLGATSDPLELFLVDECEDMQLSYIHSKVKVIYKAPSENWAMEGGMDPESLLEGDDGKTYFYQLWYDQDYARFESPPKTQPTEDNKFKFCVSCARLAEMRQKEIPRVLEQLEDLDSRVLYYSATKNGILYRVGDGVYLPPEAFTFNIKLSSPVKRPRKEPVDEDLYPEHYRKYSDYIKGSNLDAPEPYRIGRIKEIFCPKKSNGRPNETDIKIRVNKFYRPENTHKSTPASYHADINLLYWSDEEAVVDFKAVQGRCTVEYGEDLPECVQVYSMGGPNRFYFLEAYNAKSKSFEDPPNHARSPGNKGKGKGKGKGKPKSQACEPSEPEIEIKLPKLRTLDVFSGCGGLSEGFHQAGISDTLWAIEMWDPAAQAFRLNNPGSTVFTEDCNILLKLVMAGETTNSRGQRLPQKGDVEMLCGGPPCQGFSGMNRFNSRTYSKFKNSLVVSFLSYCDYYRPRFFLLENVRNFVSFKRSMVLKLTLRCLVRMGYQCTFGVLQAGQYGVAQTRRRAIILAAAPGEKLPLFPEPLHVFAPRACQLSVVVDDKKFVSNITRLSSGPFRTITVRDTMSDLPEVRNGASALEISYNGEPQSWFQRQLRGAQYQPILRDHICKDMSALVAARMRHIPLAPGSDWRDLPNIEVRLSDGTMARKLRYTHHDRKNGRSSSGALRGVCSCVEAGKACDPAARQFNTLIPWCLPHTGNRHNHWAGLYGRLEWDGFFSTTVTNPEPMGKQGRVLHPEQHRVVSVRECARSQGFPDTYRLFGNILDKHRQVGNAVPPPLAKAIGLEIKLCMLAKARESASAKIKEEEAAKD
Background: In western blotting, separated proteins are transferred to a membrane and probed.

In data set [2] the test system is CMV-EE210 cell line. Put plainly: Toxicity (TD50, cell viability) reported with the GFP assay. To be noted: Dose at which cells are >50% viable. As to the method:
The demethylating activity of non-bis-quaternary 4-anilinoquinolines were tested in a cell-based GFP (green fluorescent protein) assay. This assay has a GFP gene regulated by the CMV promoter and is sensitive to the methylation of CpG sites within the promoter. A decrease in methylation resulting from exposure to a methylation inhibitor leads to GFP expression and is readily scored. Specifically, the CMV-EE210 cell line containing the epigenetically silenced GFP transgene was used to assay for reactivation of GFP expression by flow cytometry. CMV-EE210 was made by transfecting NIH 3T3 cells with the pTR-UF/UF1/UF2 plasmid (Zolotuhin et al., 1996), which is comprised of pBS(+) (Stratagene, Inc.) containing a cytomegalovirus (CMV) promoter driving a humanized GFP gene adapted for expression in mammalian cells. After transfection, high-level GFP expressing cells were initially selected by FACS analysis and sorting using a MoFlo cytometer (Cytomation, Inc.). […] To screen for reactivation of CMV-EE210, decitabine (at […]) or a test compound (at a concentration of 30-50 μM) was added to complete medium (phenol red free DMEM (Gibco, Life Technologies) supplemented with 10% fetal bovine serum (Hyclone)). Cells were then seeded to 30% confluence (˜5000 cell/well) in 96 well plate containing the test compounds and grown for three days in at 37° C. in 5% CO2. The plates were examined under a fluorescent microscope using a 450-490 excitation filter (13 filter cube, Leica, Deerfield Ill.). Wells were scored g1 positive if 10% of viable cells express GFP, g2 positive if 30% of viable cells express GFP and g3 if greater than 75% of the viable cells express GFP. GFP IC 50 is the concentration of an inhibitor that (like an IC50) is the dose at which the GFP expression level goes from g3 to g1/2.

“And” between values parts separate entries of the source, which are not always exact repeats. Identical values can stand only once. Counter-ions that a name gives are not always drawn. A value given as a limit tells only on which side of the number the result lay.

Consider “1-methyl-4-[4-(4-{7-nitroquinolin-4-ylamino}benzamido)-phenylamino]pyridinium dichloride [Cpd. S]”, for which the “% DNMT1 Level” value in data set [1] (5 μM) was found to be 87%; in data set [1] (10 μM) it was 101%; in data set [1] (100 μM), 69%. This compound also displayed a TD50 in data set [2] of 25 µM.

A word on the melting point: it is the temperature of the solid-liquid transition. `Cc1cc(Nc2ccc(NC(=O)c3ccc(Nc4ccnc5cc(N(C)C)ccc45)cc3)cc2)nc(N)n1` (as salt: hydrochloride) [Cpd. BB, N-[4-(2-amino-6-methylpyrimidin-4-ylamino)phenyl]-4-(7-(dimethylamino)quinolin-4-ylamino)benzamide hydrochloride] gave a melting point of 272 to 275 °C. On to `Cc1cc(Nc2cccc(C(=O)Nc3ccc(Nc4ccnc5ccccc45)cc3)c2)nc(N)n1` (as salt: hydrochloride) [Cpd. FF1, 3-[(2-amino-6-methyl-4-pyrimidinyl)amino]-N-[4-(4-quinolinylamino)phenyl]benzamide dihydrochloride], for which the melting point was over 300 °C.

In the case of `Nc1cc(Nc2cccc(C(=O)Nc3ccc(Nc4ccnc5ccccc45)cc3)c2)nc(N)n1` (as salt: hydrochloride) [Cpd. FF2, 3-[(2,6-Diamino-4-pyrimidinyl)amino]-N-[4-(4-quinolinylamino)-phenyl]benzamide dihydrochloride], the melting point was over 300 °C.

`C[n+]1ccc(Nc2ccc(NC(=O)c3ccc(Nc4ccnc5ccc([N+](=O)[O-])cc45)cc3)cc2)cc1` (as salt: hydrochloride) [Cpd. G, 1-methyl-4-(4-(4-(6-nitroquinolin-4-ylamino)benzamido)phenylamino)pyridinium chloride hydrochloride] came in with a melting point of 183 to 187 °C.

Consider `Cc1cc(Nc2ccc(C(=O)Nc3ccc(Nc4ccnc5cc(N)ccc45)cc3)cc2)nc(N)n1` (as salt: hydrochloride) [Cpd. GG2, 4-[(2-Amino-6-methyl-4-pyrimidinyl)amino]-N-{4-[(7-amino-4-quinolinyl)amino]phenyl}benzamide dihydrochloride], for which the melting point was 257 to 262 °C and 257 to 261 °C.

In the case of `Cc1cc(Nc2ccc(C(=O)Nc3ccc(Nc4ccnc5ccc(N)cc45)cc3)cc2)nc(N)n1` (as salt: hydrochloride) [Cpd. GG3, 4-[(2-amino-6-methyl-4-pyrimidinyl)amino]-N-{4-[(6-amino-4-quinolinyl)amino]phenyl}benzamide dihydrochloride], the melting point is over 300 °C. The compound `Cc1cc(Nc2ccc(C(=O)Nc3ccc(Nc4ccnc5ccc([N+](=O)[O-])cc45)cc3)cc2)nc(N)n1` (as salt: hydrochloride) [Cpd. GG4, 4-[(2-Amino-6-methyl-4-pyrimidinyl)amino]-N-{4-[(6-nitro-4-quinolinyl)amino]phenyl}benzamide dihydrochloride] returned a melting point of 295 to 300 °C. Compound `Cc1cc(Nc2ccc(C(=O)Nc3ccc(Nc4ccnc5cc([N+](=O)[O-])ccc45)cc3)cc2)nc(N)n1` (as salt: hydrochloride) [Cpd. GG5, 4-[(2-Amino-6-methyl-4-pyrimidinyl)amino]-N-{4-[(7-nitro-4-quinolinyl)amino]phenyl}benzamide dihydrochloride] returned a melting point of over 300 °C. Take `Cc1cc(Nc2ccc(NC(=O)c3ccc(Nc4ccnc5ccc([N+](=O)[O-])cc45)cc3)cc2)nc(N)n1` (as salt: hydrochloride) [Cpd. H, N-(4-(2-amino-6-methylpyrimidin-4-ylamino)phenyl)-4-(6-nitroquinolin-4-ylamino)benzamide hydrochloride]: the melting point fell in the range of 301 to 305 °C.

`Cc1cc(Nc2ccc(C(=O)Nc3ccc(Nc4ccnc5ccc(N(C)C)cc45)cc3)cc2)nc(N)n1` (as salt: hydrochloride) [Cpd. HH, 4-[(2-amino-6-methyl-4-pyrimidinyl)amino]-N-(4-{[6-(dimethylamino)-4-quinolinyl]amino}phenyl)benzamide dihydrochloride] had a melting point of over 300 °C. The same measure, in the same setting: next, `Cc1cc(Nc2ccc(NC(=O)c3ccc(Nc4ccnc5c(F)c(F)c(F)cc45)cc3)cc2)nc(N)n1` (as salt: hydrochloride) [Cpd. KK, n-[4-(2-amino-6-methylpyrimidin-4-ylamino)phenyl]-4-(6,7,8-trifluoroquinolin-4-ylamino)benzamide dihydrochloride]: over 280 °C; `C/C(=N\N=C(N)N)c1ccc(NC(=O)c2ccc(Nc3ccnc4ccc(N(C)C)cc34)cc2)cc1` (as salt: hydrochloride) [Cpd. NN, (E)-N-(4-(1-((Diaminomethylene)hydrazono)ethyl)phenyl)-4-(6-(dimethylamino)quinolin-4-ylamino)benzamide Dihydrochloride]: over 280 °C. `C/C(=N\N=C(N)N)c1ccc(C(=O)Nc2ccc(Nc3ccnc4ccc(N(C)C)cc34)cc2)cc1` (as salt: hydrochloride) [Cpd. PP, 4-[(1E)-N-(diaminomethylene)ethanehydrazonoyl]-N-(4-{[6-(dimethylamino)-4-quinolinyl]amino}phenyl)benzamide dihydrochloride] registered a melting point of over 300 °C. The same measure, in the same setting: the same measure for `Nc1cc(Nc2cccc(C(=O)Nc3ccc(Nc4ccnc5ccc([N+](=O)[O-])cc45)cc3)c2)nc(N)n1` (as salt: hydrochloride) [Cpd. RR1, 3-[(2,6-diamino-4-pyrimidinyl)amino]-N-{4-[(6-nitro-4-quinolinyl)amino]phenyl}benzamide dihydrochloride]: over 300 °C; for `Cc1cc(Nc2cccc(C(=O)Nc3ccc(Nc4ccnc5ccc([N+](=O)[O-])cc45)cc3)c2)nc(N)n1` (as salt: hydrochloride) [RR2, 3-[(2-amino-6-methyl-4-pyrimidinyl)amino]-N-{4-[(6-nitro-4-quinolinyl)amino]phenyl}benzamide dihydrochloride]: over 300 °C. On the same count and under the same terms, next, `Cc1cc(Nc2cccc(C(=O)Nc3ccc(Nc4ccnc5ccc(N)cc45)cc3)c2)nc(N)n1` (as salt: hydrochloride) [RR3, 3-[(2-Amino-6-methyl-4-pyrimidinyl)amino]-N-{4-[(6-amino-4-quinolinyl)amino]phenyl}benzamide dihydrochloride]: 280 to 284 °C.

In the case of `C[n+]1ccc(Nc2cccc(NC(=O)c3ccc(Nc4ccnc5ccccc45)cc3)c2)cc1` [Cpd. A, 1-methyl-4-(3-{[4-(4-quinolinylamino)benzoyl]amino}anilino)pyridinium chloride], in data set [1], the % DNMT1 protein level remaining at 5 µM was 99% and the % DNMT1 protein level remaining at 10 µM was 117%. Besides, in data set [1] (HCT-116, 100 μM), the % DNMT1 protein level remaining at 100 µM worked out at 119%. This compound had a TD50 in data set [2] of 12.5 µM.

On to `Cc1cc(Nc2ccc(NC(=O)c3ccc(Nc4ccnc5ccc(Cl)cc45)cc3)cc2)nc(N)n1` [Cpd. LL, N-[4-(2-amino-6-methylpyrimidin-4-ylamino)phenyl]-4-(6-chloroquinolin-4-ylamino)benzamide], for which the melting point fell in the range of 250 to 254 °C. Moreover, in data set [1], the % DNMT1 protein level remaining at 5 µM turned out to be 70% and the % DNMT1 protein level remaining at 10 µM came out at 15%. Regarding `CN(C)c1ccc2nccc(Nc3ccc(NC(=O)c4cccc(Nc5cc[n+](C)cc5)c4)cc3)c2c1` [Cpd. OO1, 6-(dimethylamino)-4-[4-({3-[(1-methyl-4-pyridiniumyl)amino]benzoyl}amino)anilino]-quinolinium dichloride], the melting point was in the range of 170 to 173 °C. Besides, in data set [1], the % DNMT1 protein level remaining at 5 µM stood at 25% and the % DNMT1 protein level remaining at 10 µM was determined as 15%.

Regarding `CN(C)c1ccc2nccc(Nc3ccc(NC(=O)c4ccc(Nc5cc[n+](C)cc5)cc4)cc3)c2c1` [Cpd. OO2, 6-(Dimethylamino)-4-[4-({4-[(1-methyl-4-pyridiniumyl)amino]benzoyl}amino)-anilino]quinolinium dichloride], the melting point was 156 °C (dec.). In addition, in data set [1], the % DNMT1 protein level remaining at 5 µM is 50% and the % DNMT1 protein level remaining at 10 µM turned out to be 95%. For `C[n+]1ccc(Nc2ccc(NC(=O)c3ccc(Nc4ccnc5cc(N)ccc45)cc3)cc2)cc1` [Cpd. W, 1-methyl-4-[4-(4-{7-aminoquinolin-4-ylamino}benzamido)-phenylamino]pyridinium dichloride] the same measures were 242 to 245 °C, 45% and 75%.
